Test results: ChEMBL document CHEMBL5212743, “Selectivity Literature for EUbOPEN Chemogenomics Library wave 3” (2023)

Key:
[1] = target: T1, Sodium-dependent dopamine transporter (Homo sapiens, UniProt Q01959); test: (§1) Selectivity interaction (Eurofins-Panlabs radioligand binding assay) EUB0000716a SLC6A3
[2] = target: T1, Sodium-dependent dopamine transporter; test: as §1; remark: listed apart in the source
[3] = target: T2, Serine/threonine-protein kinase LATS1 (Homo sapiens) (UniProt O95835); test: Selectivity interaction (KinomeScan (DiscoverX)) EUB0000716a LATS1; details: at 100 nM
T2 sequence (whole entry): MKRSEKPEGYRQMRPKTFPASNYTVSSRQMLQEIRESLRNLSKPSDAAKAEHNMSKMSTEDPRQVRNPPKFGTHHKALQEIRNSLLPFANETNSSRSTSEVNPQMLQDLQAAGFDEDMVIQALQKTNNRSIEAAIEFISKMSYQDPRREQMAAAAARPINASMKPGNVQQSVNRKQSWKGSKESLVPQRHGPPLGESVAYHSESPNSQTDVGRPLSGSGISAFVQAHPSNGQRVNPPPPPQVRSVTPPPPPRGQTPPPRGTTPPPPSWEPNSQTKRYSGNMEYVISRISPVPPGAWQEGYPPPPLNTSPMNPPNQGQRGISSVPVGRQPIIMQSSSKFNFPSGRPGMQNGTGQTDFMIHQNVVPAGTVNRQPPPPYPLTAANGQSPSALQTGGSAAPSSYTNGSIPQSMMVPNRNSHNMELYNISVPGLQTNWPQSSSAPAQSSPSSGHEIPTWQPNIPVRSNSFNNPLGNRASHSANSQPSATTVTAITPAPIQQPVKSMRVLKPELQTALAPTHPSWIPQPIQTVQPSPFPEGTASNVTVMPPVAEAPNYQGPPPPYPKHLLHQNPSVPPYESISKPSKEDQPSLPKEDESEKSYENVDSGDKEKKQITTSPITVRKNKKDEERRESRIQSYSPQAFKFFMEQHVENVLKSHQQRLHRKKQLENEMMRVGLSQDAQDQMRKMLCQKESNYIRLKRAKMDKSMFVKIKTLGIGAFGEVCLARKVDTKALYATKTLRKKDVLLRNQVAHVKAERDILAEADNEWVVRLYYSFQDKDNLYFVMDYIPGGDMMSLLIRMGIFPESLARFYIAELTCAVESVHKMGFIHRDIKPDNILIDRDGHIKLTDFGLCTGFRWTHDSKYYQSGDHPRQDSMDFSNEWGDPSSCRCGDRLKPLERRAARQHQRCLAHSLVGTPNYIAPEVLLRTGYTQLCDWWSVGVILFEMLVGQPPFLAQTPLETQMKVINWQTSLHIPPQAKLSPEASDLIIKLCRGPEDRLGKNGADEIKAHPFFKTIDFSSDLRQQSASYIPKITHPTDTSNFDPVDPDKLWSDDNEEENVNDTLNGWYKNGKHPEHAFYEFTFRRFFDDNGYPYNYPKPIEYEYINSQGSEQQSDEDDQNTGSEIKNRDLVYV

[4] = target: T3, Serine/threonine-protein kinase LATS2 (Homo sapiens) (UniProt Q9NRM7); test: Selectivity interaction (KinomeScan (DiscoverX)) EUB0000716a LATS2; details: at 100 nM
T3 sequence (whole entry): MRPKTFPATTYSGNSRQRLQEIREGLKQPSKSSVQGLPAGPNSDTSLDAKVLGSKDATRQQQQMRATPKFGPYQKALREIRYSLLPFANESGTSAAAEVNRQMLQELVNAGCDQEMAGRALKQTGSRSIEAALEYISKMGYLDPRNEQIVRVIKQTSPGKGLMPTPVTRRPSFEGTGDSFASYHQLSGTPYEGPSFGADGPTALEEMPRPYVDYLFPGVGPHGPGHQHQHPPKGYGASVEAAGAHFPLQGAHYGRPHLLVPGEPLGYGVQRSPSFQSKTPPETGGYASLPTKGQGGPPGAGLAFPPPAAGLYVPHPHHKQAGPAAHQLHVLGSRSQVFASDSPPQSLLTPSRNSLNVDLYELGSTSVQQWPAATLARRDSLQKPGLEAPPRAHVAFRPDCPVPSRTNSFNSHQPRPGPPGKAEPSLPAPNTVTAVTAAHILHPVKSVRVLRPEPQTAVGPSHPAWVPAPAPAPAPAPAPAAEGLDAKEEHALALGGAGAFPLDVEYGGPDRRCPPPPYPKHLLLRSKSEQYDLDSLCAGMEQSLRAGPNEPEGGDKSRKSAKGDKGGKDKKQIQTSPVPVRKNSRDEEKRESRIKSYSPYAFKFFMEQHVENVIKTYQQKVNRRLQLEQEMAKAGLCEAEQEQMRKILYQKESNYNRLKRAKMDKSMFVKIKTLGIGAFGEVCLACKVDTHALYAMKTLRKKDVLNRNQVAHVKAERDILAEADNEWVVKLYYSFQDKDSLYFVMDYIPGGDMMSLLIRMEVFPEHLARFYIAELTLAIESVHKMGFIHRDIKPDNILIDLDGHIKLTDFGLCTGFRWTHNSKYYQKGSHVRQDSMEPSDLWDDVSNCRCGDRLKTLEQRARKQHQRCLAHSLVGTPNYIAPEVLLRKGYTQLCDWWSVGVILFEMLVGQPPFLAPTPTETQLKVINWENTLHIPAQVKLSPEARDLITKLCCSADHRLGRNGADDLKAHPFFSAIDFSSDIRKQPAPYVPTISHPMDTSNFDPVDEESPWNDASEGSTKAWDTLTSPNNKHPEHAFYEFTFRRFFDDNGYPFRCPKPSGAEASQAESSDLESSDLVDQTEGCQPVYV

[5] = target: cAMP-dependent protein kinase catalytic subunit alpha (Homo sapiens, UniProt P17612); test: Selectivity interaction (KinomeScan (DiscoverX)) EUB0000716a PRKACA; details: at 100 nM
[6] = target: cAMP-dependent protein kinase catalytic subunit beta (Homo sapiens) (UniProt P22694); test: Selectivity interaction (KinomeScan (DiscoverX)) EUB0000716a PRKACB; details: at 100 nM
[7] = target: cGMP-dependent protein kinase 1 (Homo sapiens) (UniProt Q13976); test: Selectivity interaction (KinomeScan (DiscoverX)) EUB0000716a PRKG1; details: at 100 nM
D(2) dopamine receptor = D(2) dopamine receptor (Homo sapiens, UniProt P14416); test: Selectivity interaction (GPCR panel (PDSP screen)) EUB0000703a DRD2
[8] = target: Kappa-type opioid receptor (Homo sapiens, UniProt P41145); test: Selectivity interaction (GPCR panel (PDSP screen)) EUB0000703a OPRK1
[9] = target: Sodium-dependent noradrenaline transporter (Homo sapiens, UniProt P23975); test: Selectivity interaction (GPCR panel (PDSP screen)) EUB0000703a SLC6A2
[10] = target: T4, Gamma-aminobutyric acid receptor subunit alpha-1 (Homo sapiens, UniProt P14867); test: Selectivity interaction (GPCR panel (PDSP screen)) EUB0000703a GABRA1
T4 sequence (P14867 whole entry): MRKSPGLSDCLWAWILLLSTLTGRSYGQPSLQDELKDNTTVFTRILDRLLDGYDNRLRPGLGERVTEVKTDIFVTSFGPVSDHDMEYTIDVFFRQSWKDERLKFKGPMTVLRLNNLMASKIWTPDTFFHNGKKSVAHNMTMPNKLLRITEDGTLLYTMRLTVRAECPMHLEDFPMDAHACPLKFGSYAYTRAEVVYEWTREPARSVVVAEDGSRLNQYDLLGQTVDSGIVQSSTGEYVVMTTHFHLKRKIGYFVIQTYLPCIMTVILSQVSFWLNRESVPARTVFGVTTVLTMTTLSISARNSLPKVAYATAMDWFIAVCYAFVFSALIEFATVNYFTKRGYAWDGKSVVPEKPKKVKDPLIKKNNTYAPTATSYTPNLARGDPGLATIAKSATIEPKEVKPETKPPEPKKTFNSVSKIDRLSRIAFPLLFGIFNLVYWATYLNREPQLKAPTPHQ

[11] = target: Epithelial discoidin domain-containing receptor 1 (Homo sapiens, UniProt Q08345); test: Selectivity interaction (KinomeScan (DiscoverX)) EUB0000703a DDR1; details: at 1 µM
[12] = target: Discoidin domain-containing receptor 2 (Homo sapiens) (UniProt Q16832); test: Selectivity interaction (KinomeScan (DiscoverX)) EUB0000703a DDR2; details: at 1 µM
[13] = target: Tyrosine-protein kinase Lyn (Homo sapiens, UniProt P07948); test: Selectivity interaction (NanoBRET assay (HEK293T cells)) EUB0000703a LYN
[14] = test system: Serine/threonine-protein kinase B-raf (Homo sapiens), P15056 [V600E]; test: Selectivity interaction (KinomeScan (DiscoverX)) EUB0000703a BRAF; details: at 1 µM
[15] = target: Phosphatidylinositol 4,5-bisphosphate 3-kinase catalytic subunit alpha isoform (Homo sapiens, UniProt P42336); test: Selectivity interaction (KinomeScan (DiscoverX)) EUB0000703a PIK3CA; details: at 1 µM
[16] = target: T5, Adenosine receptor A1 (Homo sapiens) (UniProt P30542); test: Selectivity interaction (CEREP panel (LeadProfilingScreen Eurofins, panel of receptors, ion channels, and other enzymes)) EUB0000191c ADORA1; details: at 10 µM
T5 sequence (whole entry): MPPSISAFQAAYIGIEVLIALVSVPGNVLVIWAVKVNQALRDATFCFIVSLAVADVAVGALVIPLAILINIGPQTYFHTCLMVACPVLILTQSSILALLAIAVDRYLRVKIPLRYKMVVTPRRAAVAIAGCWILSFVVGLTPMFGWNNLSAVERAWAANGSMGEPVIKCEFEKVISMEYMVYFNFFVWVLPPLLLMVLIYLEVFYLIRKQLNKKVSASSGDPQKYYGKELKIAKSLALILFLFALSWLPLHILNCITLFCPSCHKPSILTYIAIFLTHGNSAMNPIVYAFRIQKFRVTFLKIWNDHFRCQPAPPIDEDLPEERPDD

[17] = target: T6, Gamma-aminobutyric acid receptor subunit alpha-1 (Homo sapiens) (UniProt P14867); test: Selectivity interaction (CEREP panel (LeadProfilingScreen Eurofins, panel of receptors, ion channels, and other enzymes)) EUB0000191c GABRA1; details: at 10 µM
T6 sequence (whole entry): T4 sequence (P14867 whole entry)

[18] = target: cGMP-dependent 3',5'-cyclic phosphodiesterase (Homo sapiens) (UniProt O00408); test: Selectivity interaction (CEREP panel (LeadProfilingScreen Eurofins, panel of receptors, ion channels, and other enzymes)) EUB0000191c PDE2A; details: at 10 µM
[19] = target: cGMP-specific 3',5'-cyclic phosphodiesterase (Homo sapiens) (UniProt O76074); test: Selectivity interaction (CEREP panel (LeadProfilingScreen Eurofins, panel of receptors, ion channels, and other enzymes)) EUB0000191c PDE5A; details: at 10 µM
[20] = target: T7, Bromodomain-containing protein 4 (Homo sapiens, UniProt O60885); test: (§2) Selectivity interaction (TR-FRET assay) EUB0000191c BRD4
[21] = target: T7, Bromodomain-containing protein 4; test: as §2; remark: listed apart in the source
[22] = target: T8, Bromodomain-containing protein 7 (Homo sapiens) (UniProt Q9NPI1); test: Selectivity interaction (Bromodomain panel (DSF assay)) EUB0000191c BRD7
T8 sequence (whole entry): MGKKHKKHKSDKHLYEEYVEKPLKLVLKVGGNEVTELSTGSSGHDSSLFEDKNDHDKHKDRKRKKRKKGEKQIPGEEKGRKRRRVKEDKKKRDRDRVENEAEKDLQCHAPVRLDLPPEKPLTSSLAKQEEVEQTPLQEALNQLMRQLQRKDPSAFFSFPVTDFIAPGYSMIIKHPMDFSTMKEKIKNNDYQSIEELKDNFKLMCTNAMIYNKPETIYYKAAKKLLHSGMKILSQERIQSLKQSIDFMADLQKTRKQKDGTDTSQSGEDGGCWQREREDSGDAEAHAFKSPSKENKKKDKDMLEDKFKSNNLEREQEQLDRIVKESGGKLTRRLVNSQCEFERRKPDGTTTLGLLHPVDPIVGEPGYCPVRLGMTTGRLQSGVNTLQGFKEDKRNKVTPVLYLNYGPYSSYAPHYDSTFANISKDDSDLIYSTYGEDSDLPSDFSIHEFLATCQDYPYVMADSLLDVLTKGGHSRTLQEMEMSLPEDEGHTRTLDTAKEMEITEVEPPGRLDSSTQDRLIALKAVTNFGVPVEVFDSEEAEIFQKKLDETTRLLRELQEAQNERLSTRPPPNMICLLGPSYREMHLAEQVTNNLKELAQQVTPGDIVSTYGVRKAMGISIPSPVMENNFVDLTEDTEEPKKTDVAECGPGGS

[23] = target: T9, Chromatin remodeling regulator CECR2 (Homo sapiens, UniProt Q9BXF3); test: Selectivity interaction (Bromodomain panel (DSF assay)) EUB0000191c CECR2
[24] = target: T9, Chromatin remodeling regulator CECR2; test: Selectivity interaction (ITC) EUB0000191c CECR2
CREB-binding protein = CREB-binding protein (Homo sapiens, UniProt Q92793); test: Selectivity interaction (BROMOscan (DiscoverX)) EUB0000191c CREBBP; details: at 100 nM
[25] = target: Histone acetyltransferase p300 (Homo sapiens) (UniProt Q09472); test: Selectivity interaction (Bromodomain panel (DSF assay)) EUB0000191c EP300
[26] = target: Transcription initiation factor TFIID subunit 1-like (Homo sapiens) (UniProt Q8IZX4); test: Selectivity interaction (BROMOscan (DiscoverX)) EUB0000191c TAF1L; details: at 100 nM
Transcription initiation factor TFIID subunit 1-like (Homo sapiens), sequence (Q8IZX4 whole entry): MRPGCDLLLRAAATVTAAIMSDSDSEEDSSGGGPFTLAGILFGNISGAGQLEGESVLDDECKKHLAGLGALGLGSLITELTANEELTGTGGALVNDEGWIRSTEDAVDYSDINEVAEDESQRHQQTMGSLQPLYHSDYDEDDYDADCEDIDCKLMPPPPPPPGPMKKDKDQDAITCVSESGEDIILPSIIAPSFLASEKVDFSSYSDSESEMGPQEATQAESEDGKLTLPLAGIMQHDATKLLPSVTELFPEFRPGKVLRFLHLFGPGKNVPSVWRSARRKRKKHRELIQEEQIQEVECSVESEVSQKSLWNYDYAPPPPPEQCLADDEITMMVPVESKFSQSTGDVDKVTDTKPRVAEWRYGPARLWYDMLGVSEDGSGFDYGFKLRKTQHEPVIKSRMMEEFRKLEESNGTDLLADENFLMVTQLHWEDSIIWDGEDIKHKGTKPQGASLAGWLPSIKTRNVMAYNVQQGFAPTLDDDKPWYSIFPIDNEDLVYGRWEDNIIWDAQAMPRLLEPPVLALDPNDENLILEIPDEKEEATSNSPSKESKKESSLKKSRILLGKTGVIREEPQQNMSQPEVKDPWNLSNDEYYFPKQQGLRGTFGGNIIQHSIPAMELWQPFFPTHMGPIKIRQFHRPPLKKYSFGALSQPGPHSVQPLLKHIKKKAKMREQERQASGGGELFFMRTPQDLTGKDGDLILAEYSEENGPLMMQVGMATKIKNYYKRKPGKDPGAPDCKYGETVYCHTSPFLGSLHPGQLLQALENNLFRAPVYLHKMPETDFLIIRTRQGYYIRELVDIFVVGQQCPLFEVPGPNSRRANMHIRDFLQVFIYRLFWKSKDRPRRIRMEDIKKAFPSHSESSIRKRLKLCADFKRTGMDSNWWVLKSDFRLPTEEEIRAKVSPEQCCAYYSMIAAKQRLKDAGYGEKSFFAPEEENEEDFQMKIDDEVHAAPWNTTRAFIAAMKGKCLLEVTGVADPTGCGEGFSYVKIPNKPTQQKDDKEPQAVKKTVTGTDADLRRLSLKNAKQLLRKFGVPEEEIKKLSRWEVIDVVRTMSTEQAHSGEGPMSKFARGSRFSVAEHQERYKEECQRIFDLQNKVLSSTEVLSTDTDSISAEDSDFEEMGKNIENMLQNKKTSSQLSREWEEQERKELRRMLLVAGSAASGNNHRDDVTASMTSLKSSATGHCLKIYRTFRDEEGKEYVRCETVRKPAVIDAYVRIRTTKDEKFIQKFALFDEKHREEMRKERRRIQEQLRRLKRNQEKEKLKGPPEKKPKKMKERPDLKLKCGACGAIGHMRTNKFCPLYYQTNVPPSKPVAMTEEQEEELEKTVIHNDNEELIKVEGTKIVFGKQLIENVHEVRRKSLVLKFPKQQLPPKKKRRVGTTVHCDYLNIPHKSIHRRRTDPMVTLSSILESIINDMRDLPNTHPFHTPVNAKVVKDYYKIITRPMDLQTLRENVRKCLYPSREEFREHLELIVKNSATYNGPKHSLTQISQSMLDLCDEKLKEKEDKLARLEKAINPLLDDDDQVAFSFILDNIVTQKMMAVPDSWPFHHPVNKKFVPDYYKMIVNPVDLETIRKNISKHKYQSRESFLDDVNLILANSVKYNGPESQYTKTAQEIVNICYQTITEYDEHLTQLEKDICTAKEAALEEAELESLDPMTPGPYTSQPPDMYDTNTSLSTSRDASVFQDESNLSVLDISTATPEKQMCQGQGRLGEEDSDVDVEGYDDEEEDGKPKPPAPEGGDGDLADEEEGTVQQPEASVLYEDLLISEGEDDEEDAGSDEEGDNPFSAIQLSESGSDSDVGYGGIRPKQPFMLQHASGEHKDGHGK

T1 sequence (Q01959 whole entry): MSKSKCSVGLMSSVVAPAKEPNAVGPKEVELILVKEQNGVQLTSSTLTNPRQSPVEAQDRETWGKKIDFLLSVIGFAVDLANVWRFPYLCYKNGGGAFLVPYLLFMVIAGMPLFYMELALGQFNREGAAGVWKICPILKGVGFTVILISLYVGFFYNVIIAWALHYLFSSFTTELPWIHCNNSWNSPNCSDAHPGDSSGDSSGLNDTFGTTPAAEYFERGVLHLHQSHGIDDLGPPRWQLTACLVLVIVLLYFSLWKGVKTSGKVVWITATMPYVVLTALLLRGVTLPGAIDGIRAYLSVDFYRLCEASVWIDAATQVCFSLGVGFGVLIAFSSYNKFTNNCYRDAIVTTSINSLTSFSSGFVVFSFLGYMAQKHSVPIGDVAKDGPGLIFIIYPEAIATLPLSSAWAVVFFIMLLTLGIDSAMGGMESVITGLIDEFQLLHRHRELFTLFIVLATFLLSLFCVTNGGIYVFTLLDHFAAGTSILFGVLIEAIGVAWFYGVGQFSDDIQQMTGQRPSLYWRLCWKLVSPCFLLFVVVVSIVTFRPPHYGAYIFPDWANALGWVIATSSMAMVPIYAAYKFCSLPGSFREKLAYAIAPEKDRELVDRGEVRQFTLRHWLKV
Epithelial discoidin domain-containing receptor 1, sequence (Q08345 whole entry, the tested form may be a part): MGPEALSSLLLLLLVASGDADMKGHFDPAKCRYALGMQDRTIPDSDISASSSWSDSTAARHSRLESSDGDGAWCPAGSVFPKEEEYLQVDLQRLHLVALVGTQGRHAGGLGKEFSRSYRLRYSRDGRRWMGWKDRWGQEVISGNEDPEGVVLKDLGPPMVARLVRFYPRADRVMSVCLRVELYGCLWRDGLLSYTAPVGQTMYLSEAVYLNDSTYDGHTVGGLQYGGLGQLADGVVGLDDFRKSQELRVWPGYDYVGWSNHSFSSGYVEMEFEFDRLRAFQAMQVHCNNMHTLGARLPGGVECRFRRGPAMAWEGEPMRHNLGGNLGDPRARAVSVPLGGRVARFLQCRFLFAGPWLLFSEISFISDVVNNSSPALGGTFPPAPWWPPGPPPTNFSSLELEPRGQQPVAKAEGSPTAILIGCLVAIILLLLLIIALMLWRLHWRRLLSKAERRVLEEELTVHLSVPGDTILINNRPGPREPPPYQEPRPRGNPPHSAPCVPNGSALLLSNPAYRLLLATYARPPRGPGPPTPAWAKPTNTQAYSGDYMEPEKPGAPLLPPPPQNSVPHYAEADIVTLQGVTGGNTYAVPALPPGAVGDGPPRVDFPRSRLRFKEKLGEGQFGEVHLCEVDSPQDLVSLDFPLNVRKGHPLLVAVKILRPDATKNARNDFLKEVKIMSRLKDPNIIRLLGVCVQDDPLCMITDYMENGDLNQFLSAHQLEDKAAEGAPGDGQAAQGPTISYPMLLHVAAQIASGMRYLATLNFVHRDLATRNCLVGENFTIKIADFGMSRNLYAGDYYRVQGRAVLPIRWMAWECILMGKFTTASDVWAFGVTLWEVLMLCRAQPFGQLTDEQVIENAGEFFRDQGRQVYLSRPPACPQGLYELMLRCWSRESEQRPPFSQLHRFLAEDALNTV
Phosphatidylinositol 4,5-bisphosphate 3-kinase catalytic subunit alpha isoform, sequence (P42336 whole entry, canonical isoform): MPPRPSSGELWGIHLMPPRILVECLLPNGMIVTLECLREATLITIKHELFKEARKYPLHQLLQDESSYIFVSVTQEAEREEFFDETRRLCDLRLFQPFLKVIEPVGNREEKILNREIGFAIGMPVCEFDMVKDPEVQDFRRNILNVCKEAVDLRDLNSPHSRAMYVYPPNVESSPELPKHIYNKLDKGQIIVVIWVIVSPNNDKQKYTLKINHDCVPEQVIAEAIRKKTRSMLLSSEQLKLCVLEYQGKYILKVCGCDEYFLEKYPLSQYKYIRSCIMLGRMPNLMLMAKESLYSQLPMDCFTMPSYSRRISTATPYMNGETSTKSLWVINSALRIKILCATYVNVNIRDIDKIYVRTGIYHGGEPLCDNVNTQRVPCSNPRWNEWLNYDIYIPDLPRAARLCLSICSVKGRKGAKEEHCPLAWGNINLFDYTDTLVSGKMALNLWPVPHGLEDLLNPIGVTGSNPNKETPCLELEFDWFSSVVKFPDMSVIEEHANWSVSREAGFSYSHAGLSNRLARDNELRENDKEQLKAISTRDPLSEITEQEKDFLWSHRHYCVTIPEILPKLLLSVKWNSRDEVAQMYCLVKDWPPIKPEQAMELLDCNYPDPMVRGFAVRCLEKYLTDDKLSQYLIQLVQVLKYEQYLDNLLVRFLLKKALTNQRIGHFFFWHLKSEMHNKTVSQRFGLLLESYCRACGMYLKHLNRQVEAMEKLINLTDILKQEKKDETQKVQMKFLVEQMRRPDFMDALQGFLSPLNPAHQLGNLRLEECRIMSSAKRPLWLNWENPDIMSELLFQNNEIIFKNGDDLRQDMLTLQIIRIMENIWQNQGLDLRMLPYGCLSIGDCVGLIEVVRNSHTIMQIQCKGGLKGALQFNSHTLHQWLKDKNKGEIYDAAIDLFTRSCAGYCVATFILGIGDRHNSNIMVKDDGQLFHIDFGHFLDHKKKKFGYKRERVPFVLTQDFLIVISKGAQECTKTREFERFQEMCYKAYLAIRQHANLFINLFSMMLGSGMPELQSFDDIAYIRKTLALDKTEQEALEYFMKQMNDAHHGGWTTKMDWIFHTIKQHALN
cGMP-dependent protein kinase 1 (Homo sapiens), sequence (Q13976 whole entry): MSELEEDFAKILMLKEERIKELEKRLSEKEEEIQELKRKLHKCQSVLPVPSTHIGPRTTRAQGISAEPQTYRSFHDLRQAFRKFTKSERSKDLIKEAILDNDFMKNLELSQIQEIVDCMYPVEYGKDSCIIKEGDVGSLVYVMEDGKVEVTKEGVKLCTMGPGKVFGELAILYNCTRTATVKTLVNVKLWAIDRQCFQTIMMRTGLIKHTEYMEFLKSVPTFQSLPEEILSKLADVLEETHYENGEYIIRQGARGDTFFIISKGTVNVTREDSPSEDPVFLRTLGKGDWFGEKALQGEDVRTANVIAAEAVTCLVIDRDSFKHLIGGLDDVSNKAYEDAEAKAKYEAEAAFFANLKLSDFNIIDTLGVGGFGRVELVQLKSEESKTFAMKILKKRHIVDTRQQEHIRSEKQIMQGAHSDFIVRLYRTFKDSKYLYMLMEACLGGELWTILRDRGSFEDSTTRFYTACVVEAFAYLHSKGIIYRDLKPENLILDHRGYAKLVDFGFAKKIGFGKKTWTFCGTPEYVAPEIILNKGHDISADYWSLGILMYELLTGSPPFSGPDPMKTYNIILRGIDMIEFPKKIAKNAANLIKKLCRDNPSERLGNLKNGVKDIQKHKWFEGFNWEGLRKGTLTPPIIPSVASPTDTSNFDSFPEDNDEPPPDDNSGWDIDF

SMILES: Cc1c[nH]c2nccc(Oc3c(F)cc(Nc4cc(Cl)nc(N)n4)cc3F)c12 [BAY-549]
- Ki [1]: 0.027 µM
- Ki [2]: 0.039 µM
- % of control [3]: 42%
- % of control [4]: 0.7%
- % of control [5]: 28%
- % of control [6]: 36%
- % of control [7]: 49%

SMILES: Cc1cc(NC(=O)c2cccc(S(F)(F)(F)(F)F)c2)cc(-n2ccn3nc(-c4cccnc4)cc23)c1 [BAY-309]
- Ki (D(2) dopamine receptor): > 10 µM
- Ki [8]: > 10 µM
- Ki [9]: > 10 µM
- Ki [10]: 10.9 µM
- % of control [11]: 0%
- % of control [12]: 18%
- IC50 [13]: 7 µM
- % of control [14]: 24%
- % of control [15]: 23%

SMILES: Cc1cc2c(cc1N1C(=O)c3cccc4c(CCCO)ccc(c34)C1=O)n(C)c(=O)n2C
- % of control [16]: 48%
- % of control [17]: 23%
- % of control [18]: 49%
- % of control [19]: 2%
- IC50 [20]: > 15 µM
- IC50 [21]: > 20 µM
- dTm [22]: 2.3 K
- dTm [23]: 3.5 K
- Kd [24]: 1.39 µM
- % of control (CREB-binding protein): 30%
- dTm [25]: 3.5 K
- % of control [26]: 0.7%
